From US20060030585A1, “Tricyclic delta-opioid modulators” (priority 2004, published 2006)
Read-outs that look alike come from different tables or passages of the source.

Columns and labels:
delta opioid receptor = delta opioid receptor (Rattus norvegicus, UniProt P33533); test: Rat brain delta opioid receptor binding assay ([3H]DPDPE); conditions: Rat delta opioid receptor binding constant, rat forebrain membranes, ~4 nM [3H]DPDPE
In short: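 Forebrain membranes from male Sprague Dawley rats in 50 mM Tris HCl pH 7.4 with 5 mM MgCl2, incubated with ~4 nM [3H]DPDPE for 2.5 h at 25° C., then filtered and counted. Single concentrations give % inhibition of specific binding; concentration ranges give Ki.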

mu opioid receptor = mu opioid receptor (Rattus norvegicus, UniProt P33535); test: Rat brain mu opioid receptor binding assay ([3H]DAMGO); conditions: Rat mu opioid receptor binding constant, rat forebrain membranes, ~0.8 nM [3H]DAMGO
[1] = target: T1, hMOR (CHO-hMOR cell membranes) (Homo sapiens, UniProt P35372); test: [35S]GTPγS binding assay in CHO-hMOR cell membranes; format: biochemical
T1 construct: host or cells: CHO cells expressing hMOR (purchased membranes)
Protocol: [^35]GTPγS Binding Assays in CHO-hMOR Cell Membranes
Methods: CHO-hMOR cell membranes were purchased from Receptor Biology, Inc. (Baltimore, Md.). About 10 mg/mL of membrane protein was suspended in 10 mM TRIS-HCl pH 7.2, 2 mM EDTA, 10% sucrose, and the suspension kept on ice. A 1 mL volume of membranes was added to 15 mL cold binding assay buffer containing 50 mM HEPES, pH 7.6, 5 mM MgCl2, 100 mM NaCl, 1 mM DTT and 1 mM EDTA. The membrane suspension was homogenized with a Polytron and centrifuged at 3,000 rpm for 10 min. The supernatant was then centrifuged at 18,000 rpm for 20 min. The pellet was resuspended in 10 mL assay buffer with a Polytron. The membranes were preincubated with wheat germ agglutinin coated SPA beads (Amersham) at 25° C. for 45 min in the assay buffer. The SPA bead (5 mg/mL) coupled membranes (10 μg/mL) were then incubated with 0.5 nM [^35S]GTPγS in the assay buffer. […] A range of concentrations of receptor agonist was used to stimulate [35S]GTPγS binding. Both basal and non-specific binding was tested in the absence of agonist; non-specific binding determination included 10 μM unlabeled GTPγS.
Compounds were tested for function as antagonists by evaluating their potential to inhibit agonist-stimulated GTPγS binding. Radioactivity was quantified on a Packard TopCount. The following parameters were calculated: [formula] [formula]
EC50 values were calculated using GraphPad Prism.

[2] = target: T2, delta opioid receptor (NG108-15 cell membranes) (Mus musculus, UniProt P32300); test: [35S]GTPγS binding assay in NG108-15 cell membranes (delta opioid); format: biochemical; conditions: agonist-stimulated [35S]GTPγS binding
T2 construct: NG108-15 cell membranes were purchased from Applied Cell Sciences (Rockville, Md.); host or cells: NG108-15 cell membranes (purchased)
Protocol: [^35S]GTPγS Binding Assay in NG108-15 Cell Membranes (delta opioid)
Methods: NG108-15 cell membranes were purchased from Applied Cell Sciences (Rockville, Md.). 8 mg/mL of membrane protein suspended in 10 mM TRIS-HCl pH 7.2, 2 mM EDTA, 10% sucrose. Membranes were maintained at 4-8° C. A 1 mL volume of membranes was added into 10 mL cold binding assay buffer. The assay buffer contained 50 mM Tris, pH 7.6, 5 mM MgCl2, 100 mM NaCl, 1 mM DTT and 1 mM EGTA. The membrane suspension was homogenized twice with a Polytron, and centrifuged at 3000 rpm for 10 min. The supernatant was then centrifuged at 18,000 rpm for 20 min. Ten mL assay buffer was added into the pellet containing tube. The pellet and buffer were mixed with a Polytron.
Incubation procedure: The pellet membranes (75 μg/mL) were preincubated with SPA (10 mg/mL) at 25° C. for 45 min in the assay buffer. […] GTPγS in the same Tris buffer containing 100 μM GDP in total volume of 200 μL. Increasing concentrations of receptor agonists were used to stimulate [35S]-GTPγS binding. The basal binding was tested in the absence of agonists and non-specific binding was tested in the presence of 10 μM unlabeled GTPγS. The data were analyzed on a Packard Top Count.
% of Basal=(stimulated−non specific)*100/(basal−non specific). EC50 value values were calculated using GraphPad Prism.

[3] = CHO-hMOR cell membranes, [35S]GTPγS binding, read-out: hMOR GTPγS EC50
[4] = NG108-15 cell membranes, read-out: DOR GTPγS EC50
[5] = DOR GTPγS EC50, NG108-15 cell membranes

mu opioid receptor, sequence (P33535 whole entry): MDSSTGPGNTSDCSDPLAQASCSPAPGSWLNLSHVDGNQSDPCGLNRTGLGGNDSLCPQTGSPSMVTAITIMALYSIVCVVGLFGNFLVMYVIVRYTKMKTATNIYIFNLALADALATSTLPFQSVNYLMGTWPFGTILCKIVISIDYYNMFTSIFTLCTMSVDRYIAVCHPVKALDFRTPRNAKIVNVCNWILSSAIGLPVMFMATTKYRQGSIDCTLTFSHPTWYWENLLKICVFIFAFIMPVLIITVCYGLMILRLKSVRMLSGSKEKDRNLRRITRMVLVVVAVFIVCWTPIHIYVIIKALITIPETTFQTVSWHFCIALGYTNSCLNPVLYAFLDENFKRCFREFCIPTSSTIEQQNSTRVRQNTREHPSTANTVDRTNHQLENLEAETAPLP
T2 sequence (P32300 whole entry): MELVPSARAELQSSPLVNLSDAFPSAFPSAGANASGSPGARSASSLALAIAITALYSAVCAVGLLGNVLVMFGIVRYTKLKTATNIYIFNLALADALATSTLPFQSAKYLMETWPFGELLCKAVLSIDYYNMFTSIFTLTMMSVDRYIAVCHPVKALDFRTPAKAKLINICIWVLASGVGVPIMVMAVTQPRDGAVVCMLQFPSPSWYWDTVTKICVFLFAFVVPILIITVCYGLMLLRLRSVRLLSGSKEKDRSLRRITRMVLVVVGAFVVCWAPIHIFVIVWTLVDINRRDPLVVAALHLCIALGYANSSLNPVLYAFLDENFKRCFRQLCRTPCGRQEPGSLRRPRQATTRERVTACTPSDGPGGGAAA
delta opioid receptor, sequence (P33533 whole entry): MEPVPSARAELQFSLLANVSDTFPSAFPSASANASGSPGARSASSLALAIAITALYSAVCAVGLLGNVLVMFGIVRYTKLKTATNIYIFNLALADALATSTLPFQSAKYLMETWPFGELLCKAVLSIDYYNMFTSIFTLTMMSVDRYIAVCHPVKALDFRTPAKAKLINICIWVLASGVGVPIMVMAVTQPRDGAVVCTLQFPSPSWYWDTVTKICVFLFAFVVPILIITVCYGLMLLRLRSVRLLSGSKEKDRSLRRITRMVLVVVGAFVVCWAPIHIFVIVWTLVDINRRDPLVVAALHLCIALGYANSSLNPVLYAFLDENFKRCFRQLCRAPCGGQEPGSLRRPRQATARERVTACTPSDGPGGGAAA
T1 sequence (P35372 whole entry): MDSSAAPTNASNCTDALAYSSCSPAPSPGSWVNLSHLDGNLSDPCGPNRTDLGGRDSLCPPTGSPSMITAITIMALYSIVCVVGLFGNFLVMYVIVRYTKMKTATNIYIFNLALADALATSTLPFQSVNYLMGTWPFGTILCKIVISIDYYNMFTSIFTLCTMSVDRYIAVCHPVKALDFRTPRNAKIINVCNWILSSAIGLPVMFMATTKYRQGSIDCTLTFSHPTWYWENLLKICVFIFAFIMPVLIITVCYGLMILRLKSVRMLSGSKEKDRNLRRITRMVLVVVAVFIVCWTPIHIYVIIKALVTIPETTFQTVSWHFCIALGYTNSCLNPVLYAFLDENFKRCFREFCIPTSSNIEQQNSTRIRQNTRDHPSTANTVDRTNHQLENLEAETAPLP

SMILES	Ki (delta opioid receptor; read-out: DOR Ki) [nM]	Ki (mu opioid receptor; read-out: MOR Ki) [nM]	EC50 [1, 3] [nM]	EC50 [2, 4] [nM]	Ki (delta opioid receptor; DOR Ki) [nM]	Ki (mu opioid receptor; MOR Ki) [nM]	EC50 [1] [nM]	EC50 [2, 5] [nM]
Oc1cccc2c1Oc1cc(-c3cnc4ccccc4c3)ccc1C2=C1CC2CCC(C1)N2 [Cpd 109]	2.22	31	1230	94.2				
CCN(CC)C(=N)c1ccc2c(c1)Oc1ccccc1C2=C1CC2CCC(C1)N2 [Cpd 125]					6.3	2050	> 10000	78.3
Oc1cccc2c1Oc1cc(-c3nnn[nH]3)ccc1C2=C1CC2CCC(C1)N2 [Cpd 90]			90	0.7				
Cn1nnc(-c2ccc3c(c2)Oc2ccccc2C3=C2CC3CCC(C2)N3)n1 [Cpd 16, 3-[3-(2-Methyl-2H-tetrazol-5-yl)-xanthen-9-ylidene]-8-aza-bicyclo[3.2.1]octane]					30	1460	0.48	573
COc1cccc2c1Oc1cc(-c3ccccc3NC(C)=O)ccc1C2=C1CC2CCC(C1)N2 [Cpd 108]	33.9	426		117				
c1cncc(-c2ccc3c(c2)Oc2ccccc2C3=C2CC3CCC(C2)N3)c1 [Cpd 12, 3-(3-Pyridin-3-yl-xanthen-9-ylidene)-8-aza-bicyclo[3.2.1]octane]					24	2130	0.47	587
COc1cccc2c1Oc1cc(-c3cccnc3)ccc1C2=C1CC2CCC(C1)N2 [Cpd 71]	5.7	1140		1940				
COc1cccc2c1Oc1cc(-c3nnn[nH]3)ccc1C2=C1CC2CCC(C1)N2 [Cpd 82]	5.6	307		88.4				
O=C(NCc1cccc(F)c1)c1ccc2c(c1)Oc1ccccc1C2=C1CC2CCC(C1)N2 [Cpd 11]	18.5	739		209				
CCN(CC)C(=N)c1ccc2c(c1)Oc1ccccc1C2=C1CC2CCC(C1)N2 [Cpd 126]	1410	> 10000	> 10000	> 10000				
CC(=O)Nc1ccccc1-c1ccc2c(c1)Oc1ccccc1C2=C1CC2CCC(C1)N2 [Cpd 2, N-{2-[9-(8-Aza-bicyclo[3.2.1]oct-3-ylidene)-9H-xanthen-3-yl]-phenyl}-aceta-mide]					4.36	1140		394
COCCN(C)C(=O)c1ccc2c(c1)Oc1ccccc1C2=C1CC2CCC(C1)N2 [Cpd 7]					7.63	1810		173
